Laboratory results published in ChEMBL document CHEMBL6178019, “Discovery of CYP1A1 Inhibitors for Host-Directed Therapy against Sepsis” (J Med Chem, 2025).

What was measured:
Type in all cases: cell-based
CYP1A1 [1] = molecular target: T1, CYP1A1 (Homo sapiens, UniProt P04798); assay: Inhibition of CYP1A1 in human Caco-2 cells assessed as relative activity by measuring fold change at 500 nM incubated for 12 hrs by EROD assay relative to control; settings: read-out: FC
T1 sequence (P04798 whole entry): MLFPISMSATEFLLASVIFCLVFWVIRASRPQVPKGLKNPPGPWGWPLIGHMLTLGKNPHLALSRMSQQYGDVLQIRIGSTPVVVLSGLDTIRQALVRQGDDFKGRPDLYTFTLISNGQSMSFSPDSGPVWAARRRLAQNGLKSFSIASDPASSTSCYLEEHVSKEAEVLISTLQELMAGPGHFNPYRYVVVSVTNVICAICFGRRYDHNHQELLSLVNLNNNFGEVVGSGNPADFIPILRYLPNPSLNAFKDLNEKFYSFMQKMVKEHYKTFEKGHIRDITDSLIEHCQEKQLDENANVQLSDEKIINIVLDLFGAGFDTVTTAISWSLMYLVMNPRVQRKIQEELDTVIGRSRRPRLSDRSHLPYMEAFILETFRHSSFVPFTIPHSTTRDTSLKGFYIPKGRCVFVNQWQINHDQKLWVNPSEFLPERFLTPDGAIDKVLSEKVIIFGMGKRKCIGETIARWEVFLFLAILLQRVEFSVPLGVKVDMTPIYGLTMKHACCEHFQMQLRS

Cytochrome P450 1A1 = molecular target: T2, Cytochrome P450 1A1 (Homo sapiens, UniProt P04798); assay: Inhibition of CYP1A1 in human Caco-2 cells assessed as relative activity by measuring fold change at 5.0 uM incubated for 12 hrs by EROD assay relative to control; settings: caco-2, 12 h
T2 sequence (P04798 whole entry): T1 sequence (P04798 whole entry)

CYP1A1 [2] = molecular target: T3, CYP1A1 (Mus musculus, UniProt P00184); assay: Inhibition of CYP1A1 in mouse RAW264.7 cells assessed as relative activity by measuring fold change at 500 nM incubated for 12 hrs by EROD assay relative to control; settings: read-out: FC
T3 sequence (P00184 whole entry): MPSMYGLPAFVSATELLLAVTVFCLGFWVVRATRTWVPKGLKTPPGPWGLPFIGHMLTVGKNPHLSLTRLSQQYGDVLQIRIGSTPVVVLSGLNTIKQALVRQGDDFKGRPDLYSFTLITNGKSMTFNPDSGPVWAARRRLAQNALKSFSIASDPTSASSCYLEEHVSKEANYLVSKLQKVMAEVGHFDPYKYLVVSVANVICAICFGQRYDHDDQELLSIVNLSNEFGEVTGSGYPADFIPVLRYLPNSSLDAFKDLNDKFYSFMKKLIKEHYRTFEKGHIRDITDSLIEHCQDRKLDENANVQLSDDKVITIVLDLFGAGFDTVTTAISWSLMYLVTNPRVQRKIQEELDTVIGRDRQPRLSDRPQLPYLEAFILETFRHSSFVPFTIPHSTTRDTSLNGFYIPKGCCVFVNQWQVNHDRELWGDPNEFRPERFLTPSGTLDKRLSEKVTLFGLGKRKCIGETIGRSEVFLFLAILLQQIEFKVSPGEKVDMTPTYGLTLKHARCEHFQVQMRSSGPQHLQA

CYP1A1 [3] = molecular target: T3, CYP1A1; assay: Inhibition of CYP1A1 in mouse RAW264.7 cells assessed as relative activity by measuring fold change at 5 uM incubated for 12 hrs by EROD assay relative to control; settings: read-out: FC

Structure (SMILES) | fold induction at 12 h, 0.5 µM (CYP1A1 [1]) | fold change (FC) (Cytochrome P450 1A1) | fold induction at 12 h, 0.5 µM (CYP1A1 [2]) | fold induction at 12 h, 5 µM (CYP1A1 [3])
Cn1c(=O)n(C)c2cc(C(=O)/C=C/c3cc(F)c(F)cc3F)ccc21 | 0.35 | 0.1 | 1.11 | 0.79
CC(=O)n1cc(/C=C/C(=O)c2ccc3c(c2)n(C)c(=O)n3C)c2ccccc21 | 0.93 | 0.77 | 0.92 | 0.17
Cn1c(=O)n(C)c2cc(C(=O)/C=C/c3cc4ccccc4s3)ccc21 | 0.81 | 0.56 | 1.12 | 0.77
Cn1c(=O)n(C)c2cc(C(=O)/C=C/c3c4ccccc4cc4ccccc34)ccc21 | 0.8 | 0.71 | 1.15 | 1.06
Cn1c(=O)n(C)c2cc(C(=O)/C=C/c3c(F)c(F)c(F)c(F)c3F)ccc21 | 0.8 | 0.34 | 0.69 | 0.43
Cn1c(=O)n(C)c2cc(S(=O)(=O)NCc3ccccc3)ccc21 | 1.1 | 0.94 | 1.02 | 0.9
O=C(/C=C/c1ccc(F)cc1)c1ccccc1 [4-FLUORO CHALCONE] | 0.83 | 0.86 | 1.1 | 0.91
Cn1c(=O)n(C)c2cc(C(=O)/C=C/c3ccc([N+](=O)[O-])o3)ccc21 | 0.71 | 0.28 | 0.95 | 0.24
Cn1c(=O)n(C)c2cc(C(=O)/C=C/c3ccc(O[Si](C)(C)C(C)(C)C)cc3)ccc21 | 0.69 | 0.43 | 1.11 | 0.89
Cn1c(=O)n(C)c2cc(C(=O)/C=C/c3ccc(-c4ccccc4)cc3)ccc21 | 0.75 | 0.15 | 0.96 | 0.81
Cn1c(=O)n(C)c2cc(C(=O)/C=C/c3cn(Cc4ccccc4)c4ccccc34)ccc21 | 0.52 | 0.33 | 0.84 | 0.78
Cn1c(=O)n(C)c2cc(C(=O)/C=C/c3ccc(B(O)O)cc3F)ccc21 | 0.45 | 0.14 | 1.02 | 0.66
Cn1c(=O)n(C)c2cc(C(=O)/C=C/c3coc4ccccc34)ccc21 | 1.29 | 0.9 | 0.5 | 0.22
CC(C)=CCC/C(C)=C/COc1c2ccoc2cc2oc(=O)ccc12 [BERGAMOTTIN] | 0.19 | 0.05 | 0.44 | 0.18
C#Cc1ccc(/C=C/C(=O)c2ccc(NC(C)=O)cc2)cc1 | 0.76 | 0.43 | 1.12 | 0.57
Cn1c(=O)n(C)c2cc(C(=O)/C=C/c3cccn3C(=O)OC(C)(C)C)ccc21 | 0.9 | 0.67 | 0.69 | 0.55
Cn1c(=O)n(C)c2cc(C(=O)/C=C/C=C/c3ccc(F)cc3)ccc21 | 0.62 | 0.17 | 0.82 | 0.57
Cn1c(=O)n(C)c2cc(C(=O)/C=C/c3ccc(F)cc3Cl)ccc21 | 0.84 | 0.38 | 0.67 | 0.56
COc1ccc2c(c1)c(/C=C/C(=O)c1ccc3c(c1)n(C)c(=O)n3C)cn2Cc1ccccc1 | 1.14 | 0.81 | 1.15 | 0.81
Cn1c(=O)n(C)c2cc(C(=O)/C=C/c3ccc4ccccc4n3)ccc21 | 0.38 | 0.13 | 0.61 | 0.17
Cn1c(=O)n(C)c2cc(C(=O)/C=C/c3ccccc3P(c3ccccc3)c3ccccc3)ccc21 | 0.72 | 0.16 | 0.86 | 0.31
C#Cc1ccc(/C=C/C(=O)c2ccccc2)cc1 | 0.6 | 0.3 | 0.52 | 0.18
CCCCOc1ccc(/C=C/C(=O)c2ccc3c(c2)n(C)c(=O)n3C)cc1 | 0.91 | 0.23 | 0.95 | 0.77
Cn1c(=O)n(C)c2cc(C(=O)/C=C/C#Cc3ccccc3)ccc21 | 0.85 | 0.39 | 0.79 | 0.49

Other lines, results leading:

fold induction at 12 h, 0.5 µM (CYP1A1 [1]) | fold change (FC) (Cytochrome P450 1A1) | fold induction at 12 h, 0.5 µM (CYP1A1 [2]) | fold induction at 12 h, 5 µM (CYP1A1 [3]) | Structure (SMILES)
0.89 | 0.74 | 0.76 | 0.89 | Cn1c(=O)n(C)c2cc(C(=O)/C=C/c3cc(F)cc(F)c3)ccc21
1.05 | 0.88 | 0.73 | 0.72 | Cn1c(=O)n(C)c2cc(C(=O)/C=C/c3ncccn3)ccc21
3.53 | 0.93 | 2.57 | 0.53 | Cn1c(=O)n(C)c2cc(C(=O)/C=C/c3cccnc3)ccc21
0.98 | 0.97 | 0.64 | 0.51 | Cn1c(=O)n(C)c2cc(C(=O)/C=C/c3ccc(C(C)(C)C)cc3)ccc21
0.45 | 0.09 | 1.47 | 1.07 | Cn1cccc1/C=C/C(=O)c1ccc2c(c1)n(C)c(=O)n2C
0.5 | 0.18 | 0.75 | 0.55 | Cn1c(=O)n(C)c2cc(C(=O)/C=C/c3ccc(I)o3)ccc21
0.47 | 0.08 | 0.29 | 0.19 | Cn1c(=O)n(C)c2cc(C(=O)/C=C/c3ccc(F)cc3)ccc21
0.62 | 0.15 | 1.03 | 0.29 | Cn1c(=O)n(C)c2cc(C(=O)/C=C/c3cnc4ccccc4c3)ccc21
0.71 | 0.28 | 0.95 | 0.22 | Cn1c(=O)n(C)c2cc(C(=O)/C=C/c3ccccc3)ccc21
0.81 | 0.78 | 0.57 | 0.2 | CSc1ccc(/C=C/C(=O)c2ccc3c(c2)n(C)c(=O)n3C)cc1
0.87 | 0.47 | 0.5 | 0.31 | Cn1c(=O)n(C)c2cc(C(=O)/C=C/c3ccco3)ccc21
0.83 | 0.88 | 0.9 | 0.16 | Cn1c(=O)n(C)c2cc(C(=O)/C=C/c3ccccn3)ccc21
0.58 | 0.17 | 0.62 | 0.16 | Cn1c(=O)n(C)c2cc(C(=O)/C=C/c3cccc(OC(F)(F)F)c3)ccc21
0.66 | 0.08 | 0.77 | 0.2 | Cc1ccc(/C=C/C(=O)c2ccc3c(c2)n(C)c(=O)n3C)cn1
0.32 | 0.07 | 1.42 | 0.8 | Cn1c(=O)n(C)c2cc(C(=O)/C=C/c3cccc(F)c3)ccc21
